Experimental findings from patent US20080262000A1, “5-Alkoxyalkyl-6-alkyl-7-Aminoazolopyrimidines, Process for Their Preparation, Their Use for Controlling Harmful Fungi, and Compositions Comprising Them” (BASF Aktiengesellschaft, priority 2005, published 2008) are described below.

For the test, the system named is Phytophthora infestans. The class given is in vivo. As to conditions: potted tomato plants, untreated plants 90% infestation.
[1] abbreviates: 1 day of protective treatment, 250 ppm.
Where [2] appears, read: 3 days of protective treatment, 250 ppm.

Where two headings read alike, the source gives them in different places.

The compound `CCCCCCCCOCCCc1c(CCC)nc2ncnn2c1N` [comparative compound B] registered an infestation under setting [1] of 90% and an infestation under setting [2] of 90%.
For `CCCCCCCCOCCCc1c(COC)nc2ncnn2c1N` [I-4], under setting [1], the infestation was determined as 1%.
As for `CCCCCCCCc1c(C)nc2ncnn2c1N` [comparative compound A], the infestation (1 day of protective treatment, 16 ppm) is 70% and the infestation under setting [2] is listed as 90%.
